Assay results published in patent US4591600A, “3-hydroxyflavones: their preparation and therapeutic application” (Societe Cortial, S.A., priority 1983, dated 1986).

How the values were obtained:
[1] = tested on: neuropathy induced by streptozotocin; experiment: Streptozotocin neuropathy in rats (sciatic nerve sorbitol and inositol, glycemia); type: in vivo; settings: for inositol level in sciatic nerves / sorbitol level in sciatic nerves: streptozotocin 100 mg/kg i.p.; for inositol level in sciatic nerves: 3rd day, controls 2.174±0.481; for sorbitol level in sciatic nerves: controls 0.819±0.215; for glycemia: streptozotocin, D 3, controls 4.72±0.60
Procedure: 4 batches of 10 rats weighing about 200 g were treated from D--2 to D+3 with a gummy julep of the product to be tested. At D 0 the animals received an i.p. injection of 100 mg/kg of streptozotocin dissolved in a citrate buffer. The glycemia was determined 24 hours and 3 days after injection of the diabetogenic agent. The rats were sacrificed on the 3rd day after streptozotocin injection and the sciatic nerves were removed to determine the sorbitol and inositol levels. Tested under these condition, COR 1988 caused a reduction of the sorbitol level that went from 0.819±0.215 mg/kg in the controls to 0.608±0.049 mg/kg in animals treated with 50 mg/kg and to 0.482±0.091 mg/kg in animals treated with 100 mg/kg. Also the inositol level went from 2.174±0.481 mg/kg in the controls to 1.593±0.109 mg/kg in the animals treated wtih 25 mg/kg, to 1.430+0.104 mg/kg in the animals treated with 50 mg/kg and to 1.402±0.130 mg/kg in animals treated with 100 mg/kg. The sorbitol and inositol levels after treatment were compared with the control levels by the U test of Mann and Whitney (D. Schwartz, Methodes statistique a 1' usage des medecins et biologists [Statistical method for use by physicians and biologistes], Ed. Flammarion, Paris 1963). The results obtained are significant with p<1%. Glycemia of the control animals was 4.72±0.60g/l on D 3. It went to 3.93±0.82 g/l in animals treated with […] of COR 1988 and to 3.61±0.73 g/l in animals treated with 100 mg/kg. The reduction of glycemia are significant.

mice = experiment: Toxicity in mice
Procedure: (§1) The toxicity of the products of this invention was determined in mice.

aldose reductase = molecular target: T1, aldose reductase (Bos taurus, UniProt P16116); experiment: Inhibition of aldose reductase in vitro; type: biochemical; settings: enzyme from beef crystalline lenses; glyceraldehyde reduction, NADPH spectrophotometry
T1 construct: The enzyme was extracted from beef crystalline lenses; from tissue; host or cells: beef crystalline lenses
Procedure: The enzyme was extracted from beef crystalline lenses by the method described by S. Hayman and J. H. Kinoshita (J. Biol. Chem. 1965, 240, (2), 877). The percentage of inhibition of the capacity of the enzyme to reduce glyceraldehyde to glycerol under the effect of the product to be tested was determined by spectrophotometric determination of the amount of NADPH reacting according to the method described by Hayman and Kinoshita.

Toxicity in mice = settings: mouse, in vivo, ip, 200 mg/kg
Procedure: as §1

[2] = tested on: hypercholesterolemic mice; experiment: Hypolipidemic activity in hypercholesterolemic mice; type: in vivo; settings: 400 mg/kg orally, twice at 20 hour intervals
Procedure: The products, object of this invention, are useful as hypolipidemic agents. Thus, COR 1983 administered twice in a dose of 400 mg/kg orally at 20 hour intervals in hypercholesterolemic mice caused 24% reduction in cholesterolemia.

With `CS(=O)(=O)Oc1c(-c2ccc(O)c(O)c2)oc2cc(O)cc(O)c2c1=O` [COR 1988, 3-methanesulfonyloxy-3',4',5,7-tetrahydroxyflavone] the “inositol level in sciatic nerves” value ([1]; treated with 25 mg/kg) was 1.593 ± 0.109 mg/kg, the “sorbitol level in sciatic nerves” value ([1]; treated with 50 mg/kg D-2 to D+3, 3rd day) was 0.608 ± 0.049 mg/kg and the “inositol level in sciatic nerves” value ([1]; treated with 50 mg/kg) was 1.430 ± 0.104 mg/kg. For the same compound, the “sorbitol level in sciatic nerves” value ([1]; treated with 100 mg/kg D-2 to D+3, 3rd day) was 0.482 ± 0.091 mg/kg, the “inositol level in sciatic nerves” value ([1]; treated with 100 mg/kg) was 1.402 ± 0.130 mg/kg and the glycemia ([1]; treated with 50 mg/kg) was 3.93 ± 0.82 g/L. The glycemia ([1]; treated with 100 mg/kg) was 3.61 ± 0.73 g/L, the mortality (mice; mice, orally, in water with 6% gum, up to a dose of 3 g/kg) was “did not cause any mortality” and the IC50 (aldose reductase) was 0.251 µM.
With `O=c1c(OC2CCCCC2)c(-c2ccc(O)c(O)c2)oc2cc(O)cc(O)c12` [COR 1983, 3-cyclohexyloxy-5,7-3',4'-tetrahydroxyflavone] the mortality (Toxicity in mice) was 10%, the mortality (mice; mice, orally, in water with 6% gum, dose of 1 g/kg) was “no mortality” and the mortality (mice; mouse, in vivo) was “did not cause any mortality”. For the same compound, the IC50 (aldose reductase) was 1.58 µM and the reduction in cholesterolemia [2] was 24%.
Compound `CCOc1c(-c2ccc(O)c(O)c2)oc2cc(O)ccc2c1=O` [COR 1987, 3-Ethoxy-7,3',4'trihydroxyflavone] has an IC50 (aldose reductase) of 0.501 µM.
`Cc1ccc(S(=O)(=O)Oc2c(-c3ccc(O)c(O)c3)oc3cc(O)cc(O)c3c2=O)cc1` [COR 1990, 3-Paratoluenesulfonyloxy-5,7,3',4'-tetrahydroxyflavone] gave an IC50 (aldose reductase) of 3.16 µM.
